Measurements from patent US20230332232A1, “COMPOSITIONS AND METHODS FOR DIAGNOSING AND TREATING A DYSTONIA” (Duke University, priority 2020, published 2023).

Tested on: DYT1 knockin (Tor1a^delGAG/+) murine embryonic fibroblasts (MEFs)
Experiment: microRNA-seq of EVs from DYT1 MEFs treated with drug, compared with non-treated DYT1 MEFs
Format: cell-based, mouse
Description: In addition to proteomic analysis, total RNA-seq and microRNA-seq was performed on RNA isolated in parallel from the EV samples of Cohort 2. As with the proteomic analysis, one biological replicate was prepared from 3 distinct biological clonal cell lines for each genotype. Here, EVs were isolated from conditioned cell culture media by 18 hour ultracentrifugation at 100,000 g. RNA was extracted using the Qiagen miRNeasy Micro Kit (Cat. No. 217084) according to the manufacturer's protocol. Two RNA fractions were extracted from each sample, one enriched in coding and non-coding RNA species>200 nt (“Total RNA” fraction) and one enriched for small RNAs<200 nt (“miRNA” fraction). RNA samples were then submitted to the Duke Sequencing and Genomic Technologies shared resource for further quality control and sequencing. Samples were assessed for concentration and integrity by Qubit and Fragment Analyzer. The miRNA fractions were 4.16 ng/μL-47.57 ng/μL and total RNA fractions were 3.8 ng/μL-43.6 ng/μL. The small RNA library was prepared using the QIAseq miRNA Library Kit (Cat No./ID: 331505) and sequenced on the Illumina NextSeq 500 High-Output platform with 75 bp single-reads. The total RNA library was prepared using the Illumina TruSeq Stranded Total RNA-seq Kit with Ribozero Gold ribosomal RNA reduction and sequenced on the Illumina NovaSeq 6000 S1 platform with 100 bp paired-end reads. Sequencer lane pooling and read depth are attached in the Excel data summary (See “RNA QC” Tab). Data processing and analysis were performed in collaboration with the Duke Genomic Analysis and Bioinformatics shared resource. RNA-seq data was processed using the TrimGalore toolkit (http://www.bioinformatics.babraham.ac.uk/projects/trim_galore), which employs Cutadapt(Martin M. (2011) EMBnet.journal. 17(1):10-12) to trim low quality bases and Illumina sequencing adapters from the 3' end of the reads. Only reads that were 20 nt or longer after trimming were kept for further analysis. Reads were mapped to the mouse genome and transcriptome ([…], et al. (2012) Nucleic Acids Res. 40(Database issue):[…]-97) using the STAR RNA-seq alignment tool (Dobin A, et al. (2013). Bioinformatics. 29(1):15-21). If the reads mapped to a single genomic location, then they were kept for subsequent analysis. Gene counts were compiled using the HTSeq tool (http://www-huber.embl.de/users/anders/HTSeq/). Only genes that had at least 10 reads in any given library were used in subsequent analysis. Normalization and differential expression was carried out using the DESeq26 Bioconductor (Huber W, et al. (2015) Nat Methods. 12(2):115-121) package with the R statistical programming environment (www.r-project.org). […] 694 miRNAs were initially examined with respect to QC, genotype, RTV effects, and ISRIB effects. This subset was the “Full miRNA” subset. FIG. 9A and FIG. 9B show the RTV effect on EV composition in DYT1 cells compared to WT cells for 279 miRNAs, respectively. […] Beginning with the 694 miRNAs in the “Full miRNA” subset, more than 60 molecules were detected in either WT cells or DYT1 cells (WT or Het UMI>60). […] The candidate miRNAs were ranked by the sum of genotype-dependent absolute Z-scores and RTV-induced absolute Z-scores (Abs Z Score Sum (Geno+RTV)). This subset was the “miRNA-Ritonavir Therapeutic Efficacy” subset and contained 201 miRNAs.

[1] = RTV-treated vs non-treated DYT1 (Het) MEF EVs
[2] = mmu-miR-34a-5p, EVs of DYT1 (Het) MEFs
[3] = mmu-miR-34c-5p, EVs of DYT1 (Het) MEFs
[4] = mmu-miR-96-5p, EVs of DYT1 (Het) MEFs
[5] = mmu-miR-125b-1-3p, EVs of DYT1 (Het) MEFs
[6] = mmu-miR-130b-3p, EVs of DYT1 (Het) MEFs
[7] = mmu-miR-140-3p, EVs of DYT1 (Het) MEFs
[8] = mmu-miR-148a-3p, EVs of DYT1 (Het) MEFs
[9] = mmu-miR-182-5p, EVs of DYT1 (Het) MEFs

CC(C)c1nc(CN(C)C(=O)N[C@H](C(=O)N[C@@H](Cc2ccccc2)C[C@H](O)[C@H](Cc2ccccc2)NC(=O)OCc2cncs2)C(C)C)cs1 [RTV, Ritonavir]
direction of modulated EV miRNA expression (DYT1 cells, miRNA-Ritonavir Therapeutic Efficacy subset, 201 miRNAs): modulated expression in a therapeutic direction
RTV Direction Opposite dE? (EV miRNA mmu−let−7c−5p (housekeeping)): yes
RTV Direction Opposite dE? (EV miRNA mmu−miR−22−3p): yes
RTV Direction Opposite dE? (EV miRNA mmu−miR−34a−5p): yes
RTV Direction Opposite dE? (EV miRNA mmu−miR−96−5p): yes
RTV Direction Opposite dE? (EV miRNA mmu−miR−135a−5p): yes
RTV Direction Opposite dE? (EV miRNA mmu−miR−182−5p): yes
RTV Direction Opposite dE? (EV miRNA mmu−miR−183−5p): yes
RTV Direction Opposite dE? (EV miRNA mmu−miR−199a−3p): yes
RTV Direction Opposite dE? (EV miRNA mmu−miR−296−3p): yes
RTV Direction Opposite dE? (EV miRNA mmu−miR−542−5p): yes
mmu-miR-147-5p: RTVvHet Z Score [1]: −0.07
mmu-miR-181a-1-3p: RTVvHet Z Score [1]: 0.08
mmu-miR-331-5p: RTVvHet Z Score [1]: 0.00
mmu-miR-668-3p: RTVvHet Z Score [1]: 0.31
mmu-miR-1930-5p: RTVvHet Z Score [1]: 0.00
mmu-miR-1943-5p: RTVvHet Z Score [1]: 0.23
mmu-miR-1955-5p: RTVvHet Z Score [1]: 0.00
mmu-miR-3072-5p: RTVvHet Z Score [1]: −0.38
mmu-miR-3076-3p: RTVvHet Z Score [1]: 0.00
mmu-miR-3088-3p: RTVvHet Z Score [1]: 0.18
mmu-miR-6936-3p: RTVvHet Z Score [1]: 0.00
mmu-miR-7224-3p: RTVvHet Z Score [1]: −0.17
mmu-miR-467d-3p: RTVvHet Z Score [1]: −0.11
RTVvHet Z Score (mmu-let-7a-1-3p): 0.62
RTVvHet Z Score (mmu-let-7c-2-3p): 0.62
RTV Direction Opposite dE? (mmu-let-7f-5p, EVs of DYT1 (Het) MEFs): yes
RTVvHet Z Score (mmu-let-7g-5p): 0.50
RTVvHet Z Score (mmu-let-7i-3p): 1.15
RTV Direction Opposite dE? (mmu-let-7i-5p, EVs of DYT1 (Het) MEFs): yes
RTV Direction Opposite dE? (mmu-miR-30e-5p, EVs of DYT1 (Het) MEFs): yes
RTVvHet Z Score (mmu-miR-30e-3p): 0.49
RTVvHet Z Score (mmu-miR-15a-5p): 0.22
RTVvHet Z Score (mmu-miR-16-5p): 0.21
RTVvHet Z Score (mmu-miR-17-3p): 0.02
RTV Direction Opposite dE? (mmu-miR-19b-3p, EVs of DYT1 (Het) MEFs): yes
RTVvHet Z Score (mmu-miR-22-3p): 1.26
RTV Direction Opposite dE? (mmu-miR-22-3p, EVs of DYT1 (Het) MEFs): yes
RTVvHet Z Score (mmu-miR-23a-3p): 0.46
RTVvHet Z Score (mmu-miR-25-3p): 0.71
RTV Direction Opposite dE? (mmu-miR-26b-Sp, EVs of DYT1 (Het) MEFs): yes
RTVvHet Z Score (mmu-miR-29b-3p): 0.53
RTVvHet Z Score (mmu-miR-29c-3p): 1.17
RTVvHet Z Score (mmu-miR-30a-5p): 0.97
RTV Direction Opposite dE? (mmu-miR-30a-5p, EVs of DYT1 (Het) MEFs): yes
RTVvHet Z Score (mmu-miR-30b-5p): 1.23
RTVvHet Z Score (mmu-miR-30c-5p (1st line so named)): 1.38
RTVvHet Z Score (mmu-miR-30c-5p (2nd line so named)): 1.07
RTV Direction Opposite dE? (mmu-miR-30c-5p, EVs of DYT1 (Het) MEFs): yes
RTVvHet Z Score (mmu-miR-31-3p): 0.83
RTVvHet Z Score (mmu-miR-31-5p): 1.41
RTV Direction Opposite dE? (mmu-miR-31-5p, EVs of DYT1 (Het) MEFs): yes
RTVvHet Z Score (mmu-miR-32-5p): 0.75
RTVvHet Z Score (mmu-miR-33-5p): 1.52
RTVvHet Z Score (mmu-miR-34a-5p): 1.38
Abs Z Score Sum (Geno + RTV) [2]: 3.80
RTV Direction Opposite dE? [2]: yes
RTVvHet Z Score (mmu-miR-34b-5p): 1.55
RTVvHet Z Score (mmu-miR-34c-3p): 0.78
RTVvHet Z Score (mmu-miR-34c-5p): 1.33
Abs Z Score Sum (Geno + RTV) [3]: 3.36
RTV Direction Opposite dE? [3]: yes
RTV Direction Opposite dE? (mmu-miR-93-5p, EVs of DYT1 (Het) MEFs): yes
RTVvHet Z Score (mmu-miR-96-5p): 3.10
Abs Z Score Sum (Geno + RTV) [4]: 5.01
RTV Direction Opposite dE? [4]: yes
RTVvHet Z Score (mmu-miR-98-5p): 0.42
RTVvHet Z Score (mmu-miR-99a-5p): 0.73
RTVvHet Z Score (mmu-miR-101b-3p): 0.52
RTV Direction Opposite dE? (mmu-miR-103-3p, EVs of DYT1 (Het) MEFs): yes
RTVvHet Z Score (mmu-miR-106b-3p): 0.15
RTVvHet Z Score (mmu-miR-106b-5p): 0.54
RTVvHet Z Score (mmu-miR-124-3p): −1.59
RTVvHet Z Score (mmu-miR-125b-1-3p): 1.02
Abs Z Score Sum (Geno + RTV) [5]: 3.85
RTV Direction Opposite dE? [5]: yes
RTVvHet Z Score (mmu-miR-130b-3p): 1.50
Abs Z Score Sum (Geno + RTV) [6]: 3.92
RTV Direction Opposite dE? [6]: yes
RTV Direction Opposite dE? (mmu-miR-135a-5p, EVs of DYT1 (Het) MEFs): yes
RTVvHet Z Score (mmu-miR-136-3p): 1.52
RTVvHet Z Score (mmu-miR-140-3p): 2.54
Abs Z Score Sum (Geno + RTV) [7]: 4.39
RTV Direction Opposite dE? [7]: yes
RTVvHet Z Score (mmu-miR-146a-5p): 0.10
RTVvHet Z Score (mmu-miR-148a-3p): 1.86
Abs Z Score Sum (Geno + RTV) [8]: 3.69
RTV Direction Opposite dE? [8]: yes
RTVvHet Z Score (mmu-miR-148b-3p): 0.58
RTVvHet Z Score (mmu-miR-149-5p): 0.33
RTVvHet Z Score (mmu-miR-151-5p): 0.32
RTVvHet Z Score (mmu-miR-152-3p): 0.76
RTVvHet Z Score (mmu-miR-181a-5p): 0.31
RTVvHet Z Score (mmu-miR-181b-5p): 0.54
RTVvHet Z Score (mmu-miR-181c-5p): 0.88
RTVvHet Z Score (mmu-miR-182-5p): 5.33
Abs Z Score Sum (Geno + RTV) [9]: 7.27
RTV Direction Opposite dE? [9]: yes
